{
  "source": "patent US20230183237A1",
  "about": "“COMPETITIVE AND NONCOMPETITIVE INHIBITORS OF THE MUSCARINIC ACETYLCHOLINE RECEPTOR M5” (Vanderbilt University, priority 2020, published 2023)",
  "data": [
    {"target": "T1, hM5 (Homo sapiens, UniProt P08912)", "T1 construct": "expressed in transfected cells", "T1 sequence (P08912 1-532)": "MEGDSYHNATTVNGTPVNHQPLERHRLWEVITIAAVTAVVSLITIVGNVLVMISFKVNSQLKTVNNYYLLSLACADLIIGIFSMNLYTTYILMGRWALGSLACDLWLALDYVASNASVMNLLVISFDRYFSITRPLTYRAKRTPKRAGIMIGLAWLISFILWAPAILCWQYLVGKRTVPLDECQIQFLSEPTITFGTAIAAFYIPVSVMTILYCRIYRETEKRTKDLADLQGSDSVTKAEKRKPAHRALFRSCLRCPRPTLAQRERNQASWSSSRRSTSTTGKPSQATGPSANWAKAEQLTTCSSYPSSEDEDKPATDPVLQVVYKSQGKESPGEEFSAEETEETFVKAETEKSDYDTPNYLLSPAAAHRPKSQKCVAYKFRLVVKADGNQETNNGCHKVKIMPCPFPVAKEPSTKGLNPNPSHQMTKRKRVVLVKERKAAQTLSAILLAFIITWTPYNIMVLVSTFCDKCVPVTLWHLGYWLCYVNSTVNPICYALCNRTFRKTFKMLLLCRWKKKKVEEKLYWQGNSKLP", "test": "Calcium mobilization concentration-response (IC50 vs EC80 acetylcholine), CHO hM5", "assay_type": "cell-based", "settings": "CELL LINE hM5; calcium mobilization, EC80 acetylcholine addition; read-out: IC50", "in_short": "(§1)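 IC50 values derive from percent maximal acetylcholine response after an EC80 ACh addition, measured as kinetic calcium fluorescence (static ratio, max−min). Test compounds were added 140 s before agonist. Cells: stable hM5-CHO in HEPES-buffered HBSS with 2.5 mM probenecid, pH 7.4; ≥3 independent triplicate determinations.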", "units": {"IC50": "nM"}, "values": [
      {"molecule": "Cc1c(C2CCN(S(=O)(=O)c3cnn(C)c3C(F)(F)F)CC2)cn2ncnc2c1F", "note": "[Compound 347, 8-fluoro-7-methyl-6-(1-((1-methyl-5-(trifluoromethyl)-1H-pyrazol-4-yl)sulfonyl)piperidin-4-yl)-[1,2,4]triazolo[1,5-a]pyridine]", "IC50": 360},
      {"molecule": "CCn1ncc(S(=O)(=O)N2CCC(c3cn4ncnc4cc3C)CC2)c1C1CC1", "note": "[Compound 133, 6-(1-((5-cyclopropyl-1-ethyl-1H-pyrazol-4-yl)sulfonyl)piperidin-4-yl)-7-methyl-[1,2,4]triazolo[1,5-a]pyridine]", "IC50": "> 10000"},
      {"molecule": "Cc1sc(C#N)nc1C1=CCN(S(=O)(=O)c2cnn(C)c2C)CC1", "note": "[Compound 204, 4-(1-((1,5-dimethyl-1H-pyrazol-4-yl)sulfonyl)-1,2,3,6-tetrahydropyridin-4-yl)-5-methylthiazole-2-carbonitrile]", "IC50": "> 10000"},
      {"molecule": "Cc1cc2nccn2nc1N1CCN(S(=O)(=O)c2ccc3c(c2)CCO3)CC1", "note": "[Compound 36, 6-(4-((2,3-Dihydrobenzofuran-5-yl)sulfonyl)piperazin-1-yl)-7-methylimidazo[1,2-b]pyridazine]", "IC50": 4000},
      {"molecule": "CCc1cc2ncnn2cc1C1CCN(S(=O)(=O)c2cnn(C)c2C)CC1", "note": "[Compound 297, 6-(1-((1,5-dimethyl-1H-pyrazol-4-yl)sulfonyl)piperidin-4-yl)-7-ethyl-[1,2,4]triazolo[1,5-a]pyridine]", "IC50": 73},
      {"molecule": "Cc1cc2nccn2nc1C1CCN(S(=O)(=O)c2cnn3c2CCCC3)CC1", "note": "[Compound 247, 7-methyl-6-(1-((4,5,6,7-tetrahydropyrazolo[1,5-a]pyridin-3-yl)sulfonyl)piperidin-4-yl)imidazo[1,2-b]pyridazine]", "IC50": 19},
      {"molecule": "Cc1cc2c(cc1S(=O)(=O)N1CCC(c3ccc4ncnn4c3C)CC1)C(C)CO2", "note": "(centres unmarked) [Compound 85, 6-(1-((3,6-dimethyl-2,3-dihydrobenzofuran-5-yl)sulfonyl)piperidin-4-yl)-5-methyl-[1,2,4]triazolo[1,5-a]pyridine]", "IC50": 6300},
      {"molecule": "O=S(=O)(c1ccc2c(c1)CCO2)N1CCC(c2cn3ccnc3cn2)CC1", "note": "[Compound 27, 6-(1-((2,3-dihydrobenzofuran-5-yl)sulfonyl)piperidin-4-yl)imidazo[1,2-a]pyrazine]", "IC50": "> 10000"},
      {"molecule": "O=S(=O)(c1cnn2c1CCC2)N1CC=C(c2cn3ncnc3cc2Cl)CC1", "note": "[Compound 196, 7-chloro-6-(1-((5,6-dihydro-4H-pyrrolo[1,2-b]pyrazol-3-yl)sulfonyl)-1,2,3,6-tetrahydropyridin-4-yl)-[1,2,4]triazolo[1,5-a]pyridine]", "IC50": 6.1},
      {"molecule": "Cc1c(S(=O)(=O)N2CCC(c3cn4ncnc4cc3C(F)(F)F)CC2)cnn1C", "note": "[Compound 273, 6-(1-((1,5-dimethyl-1H-pyrazol-4-yl)sulfonyl)piperidin-4-yl)-7-(trifluoromethyl)-[1,2,4]triazolo[1,5-a]pyridine]", "IC50": 150},
      {"molecule": "Cc1c(S(=O)(=O)N2CCC(c3cn4ncnc4cc3F)CC2)cnn1C(F)F", "note": "[Compound 230, 6-(1-((1-(difluoromethyl)-5-methyl-1H-pyrazol-4-yl)sulfonyl)piperidin-4-yl)-7-fluoro-[1,2,4]triazolo[1,5-a]pyridine]", "IC50": "> 10000"},
      {"molecule": "Cc1c(S(=O)(=O)N2CCC(c3ccc4c(c3)OCO4)CC2)cnn1C", "note": "[Compound 356, 4-(benzo[d][1,3]dioxol-5-yl)-1-((1,5-dimethyl-1H-pyrazol-4-yl)sulfonyl)piperidine]", "IC50": 306},
      {"molecule": "Cc1cc2nccn2nc1C1CCN(S(=O)(=O)c2ccc3c(c2)CCO3)CC1", "note": "[Compound 17, 6-(1-((2,3-dihydrobenzofuran-5-yl)sulfonyl)piperidin-4-yl)-7-methylimidazo[1,2-b]pyridazine]", "IC50": 839},
      {"molecule": "Cc1cc2ncnn2nc1C1CCN(S(=O)(=O)c2ccc3c(c2)CCO3)CC1", "note": "[Compound 164, 6-(1-((2,3-dihydrobenzofuran-5-yl)sulfonyl)piperidin-4-yl)-7-methyl-[1,2,4]triazolo[1,5-b]pyridazine]", "IC50": 5900},
      {"molecule": "Cc1c(C2CCN(S(=O)(=O)c3cnn(C)c3C(F)F)CC2)cn2ncnc2c1F", "note": "[Compound 307, 6-(1-((5-(Difluoromethyl)-1-methyl-1H-pyrazol-4-yl)sulfonyl)piperidin-4-yl)-8-fluoro-7-methyl-[1,2,4]triazolo[1,5-a]pyridine]", "IC50": 17},
      {"molecule": "Cc1c(S(=O)(=O)N2CCC(c3cn4ncnc4cc3-c3ccn(C)n3)CC2)cnn1C", "note": "[Compound 332, 6-(1-((1,5-dimethyl-1H-pyrazol-4-yl)sulfonyl)piperidin-4-yl)-7-(1-methyl-1H-pyrazol-3-yl)-[1,2,4]triazolo[1,5-a]pyridine]", "IC50": "> 10000"},
      {"molecule": "O=S(=O)(c1ccc2ncsc2c1)N1CCC(c2cc3[nH]ncc3cn2)CC1", "note": "[Compound 19, 6-((4-(1H-pyrazolo[4,3-c]pyridin-6-yl)piperidin-1-yl)sulfonyl)benzo[d]thiazole]", "IC50": "> 10000"},
      {"molecule": "Cc1c(S(=O)(=O)N2CC=C(c3cn4ncnc4c(F)c3F)CC2)cnn1C", "note": "[Compound 379, 6-(1-((1,5-dimethyl-1H-pyrazol-4-yl)sulfonyl)-1,2,3,6-tetrahydropyridin-4-yl)-7,8-difluoro-[1,2,4]triazolo[1,5-a]pyridine]", "IC50": 243},
      {"molecule": "Cc1cc2nccn2cc1C1CCN(S(=O)(=O)c2ccc(Cl)nc2)CC1", "note": "[Compound 70, 6-(1-((6-chloropyridin-3-yl)sulfonyl)piperidin-4-yl)-7-methylimidazo[1,2-a]pyridine]", "IC50": "> 10000"},
      {"molecule": "Cc1c(C2CCN(S(=O)(=O)c3cnc(C)n3C)CC2)cn2ncnc2c1F", "note": "[Compound 304, 6-(1-((1,2-dimethyl-1H-imidazol-5-yl)sulfonyl)piperidin-4-yl)-8-fluoro-7-methyl-[1,2,4]triazolo[1,5-a]pyridine]", "IC50": 43}
    ]},
    {"target": "T1, hM5", "test": "Calcium mobilization concentration-response (IC50 vs EC80 acetylcholine), CHO hM5", "assay_type": "cell-based", "settings": "CELL LINE hM5; vs EC80 acetylcholine; read-out: IC50", "in_short": "as §1", "units": {"IC50": "nM"}, "values": [
      {"molecule": "Cc1cc2ncnn2cc1C1CCN(S(=O)(=O)c2cnn(C)c2N2CCOCC2)CC1", "note": "[Compound 622, 4-(1-Methyl-4-((4-(7-methyl-[1,2,4]triazolo[1,5-a]pyridin-6-yl)piperidin-1-yl)sulfonyl)-1H-pyrazol-5-yl)morpholine]", "IC50": 1970},
      {"molecule": "O=S(=O)(c1cnn2ccccc12)N1CCC(c2cn3ncnc3cc2C(F)F)CC1", "note": "[Compound 510, 7-(difluoromethyl)-6-(1-(pyrazolo[1,5-a]pyridin-3-ylsulfonyl)piperidin-4-yl)-[1,2,4]triazolo[1,5-a]pyridine]", "IC50": 60},
      {"molecule": "Cc1cc2ncnn2cc1C1CCN(S(=O)(=O)c2conc2C)CC1", "note": "[Compound 499, 3-methyl-4-((4-(7-methyl-[1,2,4]triazolo[1,5-a]pyridin-6-yl)piperidin-1-yl)sulfonyl)isoxazole]", "IC50": 4510},
      {"molecule": "Cn1ncc(S(=O)(=O)N2CCC(c3ccc4ncnn4c3)CC2)c1CC#N", "note": "[Compound 433, 2-(4-((4-([1,2,4]triazolo[1,5-a]pyridin-6-yl)piperidin-1-yl)sulfonyl)-1-methyl-1-pyrazol-5-yl)acetonitrile]", "IC50": 3020},
      {"molecule": "[2H]C([2H])([2H])Oc1c(S(=O)(=O)N2CCC(c3nn4ncnc4cc3C)CC2)cnn1C", "note": "[Compound 617, 6-(1-((5-(methoxy-d3)-1-methyl-1H-pyrazol-4-yl)sulfonyl)piperidin-4-yl)-7-methyl-[1,2,4]triazolo[1,5-b]pyridazine]", "IC50": 1980},
      {"molecule": "Cc1ncc(S(=O)(=O)N2CCC(c3cnc(N(C)C)cc3C)CC2)s1", "note": "[Compound 552, N.N,4-trimethyl-5-(1-((2-methylthiazol-5-yl)sulfonyl)piperidin-4-yl)pyridin-2-amine]", "IC50": 94},
      {"molecule": "[2H]C1([2H])CC(c2cn3ncnc3cc2F)CC([2H])([2H])N1S(=O)(=O)c1cnc(C)o1", "note": "[Compound 567, 5-((4-(7-fluoro-[1,2,4]triazolo[1,5-a]pyridin-6-yl)piperidin-1-yl-2,2,6,6-d4)sulfonyl)-2-methyloxazole]", "IC50": 1390},
      {"molecule": "Cc1cc2ncnn2cc1C1CCN(S(=O)(=O)c2cnn3ccccc23)CC1", "note": "[Compound 508, 7-methyl-6-(1-(pyrazolo[1,5-a]pyridin-3-ylsulfonyl)piperidin-4-yl)-[1,2,4]triazolo[1,5-a]pyridine]", "IC50": 20},
      {"molecule": "O=S(=O)(c1cnn2c1CCC2)N1CCC(F)(c2cn3ncnc3cc2F)CC1", "note": "[Compound 505, 6-(1-((5,6-dihydro-4H-pyrrolo[1,2-b]pyrazol-3-yl)sulfonyl)-4-fluoropiperidin-4-yl)-7-fluoro-[1,2,4]triazolo[1,5-a]pyridine]", "IC50": 1310},
      {"molecule": "COc1c(S(=O)(=O)N2CCC(c3cn4ncnc4c(F)c3C)CC2)cnn1C", "note": "[Compound 576, 8-fluoro-6-(1-((5-methoxy-1-methyl-1H-pyrazol-4-yl)sulfonyl)piperidin-4-yl)-7-methyl-[1,2,4]triazolo[1,5-a]pyridine]", "IC50": 19},
      {"molecule": "Cn1ncc(S(=O)(=O)N2CCC(c3cn4ncnc4cc3C(F)(F)F)CC2)c1CC#N", "note": "[Compound 410, 2-(1-methyl-4-((4-(7-(trifluoromethyl)-[1,2,4]triazolo[1,5-a]pyridin-6-yl)piperidin-1-yl)sulfonyl)-1H-pyrazol-5-yl)acetonitrile]", "IC50": 204},
      {"molecule": "[2H]C([2H])([2H])Oc1c(S(=O)(=O)N2CCC(c3cn4ncnc4cc3Cl)CC2)cnn1C", "note": "[Compound 613, 7-chloro-6-(1-((5-(methoxy-d3)-1-methyl-1H-pyrazol-4-yl)sulfonyl)piperidin-4-yl)-[1,2,4]triazolo[1,5-a]pyridine]", "IC50": 22}
    ]}
  ]
}
